Experiments:
[1] = target: T1, BCR-KIT BaF3 cells (Homo sapiens, UniProt P10721); assay: BaF3 BCR-KIT cell proliferation assay (ATPlite); type: cell-based; conditions: read-out: Inhibition of Cell Proliferation IC50, BCR/BaF3 Kit
T1 construct: fused on or other part: P11274 (Breakpoint cluster region protein)
How it was run: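 Growth inhibition over 3 days at 37 °C; IC50 from ATPlite luminescence, 8 concentrations (1:3 steps, max 10 μM). BaF3 fusion lines were tested without IL-3.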

[2] = Relative solubility by turbidity in aqueous buffers (pH 1.5, 4.5, 6.8, 7.4); type: physicochemical; conditions: for turbidity threshold (L, M, H) 1.4: pH 1.5 (SGF); for turbidity threshold (L, M, H) 4.5: pH 4.5 (SIF); for turbidity threshold (L, M, H) 6.8: pH 6.8 (SIF); for turbidity threshold (L, M, H) 7.4: pH 7.4 (HEPES)
How it was run: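 Twofold DMSO dilutions of a 25 mM stock were spiked into SGF (0.5M NaCl, pH 1.5), SIF (0.05M NaH2PO4, pH 4.5 and 6.8) or HEPES buffer (10 mM HEPES, 150 mM NaCl, pH 7.4). Absorbance was read at 490, 535 and 650 nm. The endpoint is the concentration crossing O.D. 0.01, averaged across wavelengths.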

T1 sequence (P10721 589-937): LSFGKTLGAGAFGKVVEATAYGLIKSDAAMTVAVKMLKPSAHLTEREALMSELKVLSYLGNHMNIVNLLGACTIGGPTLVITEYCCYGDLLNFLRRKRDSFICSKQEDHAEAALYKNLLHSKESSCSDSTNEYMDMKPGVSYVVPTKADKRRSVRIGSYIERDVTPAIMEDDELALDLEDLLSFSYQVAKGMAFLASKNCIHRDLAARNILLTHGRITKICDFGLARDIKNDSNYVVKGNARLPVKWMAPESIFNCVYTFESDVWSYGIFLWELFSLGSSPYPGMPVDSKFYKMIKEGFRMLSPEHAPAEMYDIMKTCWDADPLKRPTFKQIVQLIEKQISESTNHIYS

IC50 [1] [nM] | SMILES | turbidity threshold (L, M, H) 1.4 [2] | turbidity threshold (L, M, H) 4.5 [2] | turbidity threshold (L, M, H) 6.8 [2] | turbidity threshold (L, M, H) 7.4 [2]
< 100 | COc1ccc(Nc2ccc(C(=O)c3c[nH]c4ncnc(NC5CCCCC5)c34)c(F)n2)cn1 [Compound P-4082, [4-(cyclohexylamino)-7H-pyrrolo[2,3-d]pyrimidin-5-yl]-[2-fluoro-6-[(6-methoxy-3-pyridyl)amino]-3-pyridyl]methanone] | M (moderate solubility if the threshold concentration is 31.3 μM to 250 μM) | L (low solubility if the threshold concentration is <31.3 μM) | L (low solubility if the threshold concentration is <31.3 μM) | L (low solubility if the threshold concentration is <31.3 μM)
< 100 | CNc1ncnc2[nH]cc(C(=O)c3ccc(Nc4ccc(OC)nc4)nc3F)c12 [Compound P-4083, [2-fluoro-6-[(6-methoxy-3-pyridyl)amino]-3-pyridyl]-[4-(methylamino)-7H-pyrrolo[2,3-d]pyrimidin-5-yl]methanone] | M (moderate solubility if the threshold concentration is 31.3 μM to 250 μM) | M (moderate solubility if the threshold concentration is 31.3 μM to 250 μM) | M (moderate solubility if the threshold concentration is 31.3 μM to 250 μM) | H (high solubility if the threshold concentration is >250 μm)
< 1000 | COc1ccc(Nc2ccc(C(=O)c3c[nH]c4ncnc(NCC(F)(F)F)c34)c(F)n2)cn1 [Compound P-4084, [2-fluoro-6-[(6-methoxy-3-pyridyl)amino]-3-pyridyl]-[4-(2,2,2-trifluoroethylamino)-7H-pyrrolo[2,3-d]pyrimidin-5-yl]methanone] | M (moderate solubility if the threshold concentration is 31.3 μM to 250 μM) | M (moderate solubility if the threshold concentration is 31.3 μM to 250 μM) | M (moderate solubility if the threshold concentration is 31.3 μM to 250 μM) | H (high solubility if the threshold concentration is >250 μm)
> 1000 | O=C(c1ccc(NC2CCC(F)(F)CC2)nc1)c1c[nH]c2ncnc(NCC(F)(F)F)c12 [Compound P-4087, [6-[(4,4-difluorocyclohexyl)amino]-3-pyridyl]-[4-(2,2,2-trifluoroethylamino)-7H-pyrrolo[2,3-d]pyrimidin-5-yl]methanone] | H (high solubility if the threshold concentration is >250 μm) | M (moderate solubility if the threshold concentration is 31.3 μM to 250 μM) | M (moderate solubility if the threshold concentration is 31.3 μM to 250 μM) | M (moderate solubility if the threshold concentration is 31.3 μM to 250 μM)
< 1000 | O=C(c1ccc(NC2CCC(F)(F)CC2)nc1)c1c[nH]c2ncnc(NC3CC3)c12 [Compound P-4088, [4-(cyclopropylamino)-7H-pyrrolo[2,3-d]pyrimidin-5-yl]-[6-[(4,4-difluorocyclohexyl)amino]-3-pyridyl]methanone] | H (high solubility if the threshold concentration is >250 μm) | M (moderate solubility if the threshold concentration is 31.3 μM to 250 μM) | M (moderate solubility if the threshold concentration is 31.3 μM to 250 μM) | M (moderate solubility if the threshold concentration is 31.3 μM to 250 μM)
< 1000 | CNc1ncnc2[nH]cc(C(=O)c3ccc(NC4CCC(F)(F)CC4)nc3)c12 [Compound P-4089, [6-[(4,4-difluorocyclohexyl)amino]-3-pyridyl]-[4-(methylamino)-7H-pyrrolo[2,3-d]pyrimidin-5-yl]methanone] | H (high solubility if the threshold concentration is >250 μm) | M (moderate solubility if the threshold concentration is 31.3 μM to 250 μM) | M (moderate solubility if the threshold concentration is 31.3 μM to 250 μM) | M (moderate solubility if the threshold concentration is 31.3 μM to 250 μM)
< 100 | O=C(c1ccc(Nc2ccc(C(F)(F)F)nc2)nc1F)c1c[nH]c2ncnc(NC3CC3)c12 [Compound P-4091, [4-(cyclopropylamino)-7H-pyrrolo[2,3-d]pyrimidin-5-yl]-[2-fluoro-6-[[6-(trifluoromethyl)-3-pyridyl]amino]-3-pyridyl]methanone] | H (high solubility if the threshold concentration is >250 μm) | M (moderate solubility if the threshold concentration is 31.3 μM to 250 μM) | M (moderate solubility if the threshold concentration is 31.3 μM to 250 μM) | M (moderate solubility if the threshold concentration is 31.3 μM to 250 μM)

Further lines, the compound ahead of its results:

SMILES | IC50 [1] [nM] | turbidity threshold (L, M, H) 1.4 [2] | turbidity threshold (L, M, H) 4.5 [2] | turbidity threshold (L, M, H) 6.8 [2] | turbidity threshold (L, M, H) 7.4 [2]
COc1ccc(Nc2ccc(C(=O)c3c[nH]c4ncnc(NC5CCC5)c34)c(F)n2)cn1 [Compound P-4076, [4-(cyclobutylamino)-7H-pyrrolo[2,3-d]pyrimidin-5-yl]-[2-fluoro-6-[(6-methoxy-3-pyridyl)amino]-3-pyridyl]methanone] | < 100 | M (moderate solubility if the threshold concentration is 31.3 μM to 250 μM) | M (moderate solubility if the threshold concentration is 31.3 μM to 250 μM) | M (moderate solubility if the threshold concentration is 31.3 μM to 250 μM) | L (low solubility if the threshold concentration is <31.3 μM)
CCC(CC)Nc1ncnc2[nH]cc(C(=O)c3ccc(Nc4ccc(OC)nc4)nc3F)c12 [Compound P-4077, [4-(1-ethylpropylamino)-7H-pyrrolo[2,3-d]pyrimidin-5-yl]-[2-fluoro-6-[(6-methoxy-3-pyridyl)amino]-3-pyridyl]methanone] | < 100 | M (moderate solubility if the threshold concentration is 31.3 μM to 250 μM) | L (low solubility if the threshold concentration is <31.3 μM) | L (low solubility if the threshold concentration is <31.3 μM) | L (low solubility if the threshold concentration is <31.3 μM)
CCC(C)Nc1ncnc2[nH]cc(C(=O)c3ccc(Nc4ccc(OC)nc4)nc3F)c12 (centres unmarked) [Compound P-4078, [2-fluoro-6-[(6-methoxy-3-pyridyl)amino]-3-pyridyl]-[4-(sec-butylamino)-7H-pyrrolo[2,3-d]pyrimidin-5-yl]methanone] | < 100 | M (moderate solubility if the threshold concentration is 31.3 μM to 250 μM) | L (low solubility if the threshold concentration is <31.3 μM) | L (low solubility if the threshold concentration is <31.3 μM) | L (low solubility if the threshold concentration is <31.3 μM)
COCCCNc1ncnc2[nH]cc(C(=O)c3ccc(Nc4ccc(OC)nc4)nc3F)c12 [Compound P-4079, [2-fluoro-6-[(6-methoxy-3-pyridyl)amino]-3-pyridyl]-[4-(3-methoxypropylamino)-7H-pyrrolo[2,3-d]pyrimidin-5-yl]methanone] | < 100 | H (high solubility if the threshold concentration is >250 μm) | M (moderate solubility if the threshold concentration is 31.3 μM to 250 μM) | M (moderate solubility if the threshold concentration is 31.3 μM to 250 μM) | M (moderate solubility if the threshold concentration is 31.3 μM to 250 μM)
CCCCNc1ncnc2[nH]cc(C(=O)c3ccc(Nc4ccc(OC)nc4)nc3F)c12 [Compound P-4080, [4-(butylamino)-7H-pyrrolo[2,3-d]pyrimidin-5-yl]-[2-fluoro-6-[(6-methoxy-3-pyridyl)amino]-3-pyridyl]methanone] | < 100 | M (moderate solubility if the threshold concentration is 31.3 μM to 250 μM) | M (moderate solubility if the threshold concentration is 31.3 μM to 250 μM) | H (high solubility if the threshold concentration is >250 μm) | M (moderate solubility if the threshold concentration is 31.3 μM to 250 μM)
CCNc1ncnc2[nH]cc(C(=O)c3ccc(Nc4ccc(OC)nc4)nc3F)c12 [Compound P-4081, [4-(ethylamino)-7H-pyrrolo[2,3-d]pyrimidin-5-yl]-[2-fluoro-6-[(6-methoxy-3-pyridyl)amino]-3-pyridyl]methanone] | < 100 | H (high solubility if the threshold concentration is >250 μm) | M (moderate solubility if the threshold concentration is 31.3 μM to 250 μM) | H (high solubility if the threshold concentration is >250 μm) | M (moderate solubility if the threshold concentration is 31.3 μM to 250 μM)
